# Test results published in paper PMC3543460, “Structure-Activity Relationships of the Antimicrobial Peptide Arasin 1 — And Mode of Action Studies of the N-Terminal, Proline-Rich Region” (PLoS ONE, 2013).
# Peptide text beside a SMILES is read from it.
# Assays:
# P. aeruginosa ATCC 27853 = format: cell-based, Pseudomonas aeruginosa; conditions: ATCC 27853, 24 h
# [1] = system: E. coli HB101 constitutively expressing the luxCDABE operon; assay: Cell viability assay (luxCDABE luminescence); format: cell-based, Escherichia coli; conditions: at MIC, within the first 10 min after addition of peptide; 50% MH, OD600 0.2, 30°C
# Method: E.coli HB101 was transformed with the plasmid pCGLS-11 to enable constitutive bacterial luciferase expression from the luxCDABE operon. The resulting strain was used for cell viability assays as follows. An overnight culture in MH medium with ampicillin (100 µg/ml) was pelleted at 3000×g for 10 min and washed in MH medium before re-suspending the cells in 50% MH medium with a final OD600 of approximately 0.2. After 30 min of incubation at 30°C the cells were again adjusted to an OD600 of 0.2. An aliquot of 95 µl of bacterial solution was dispensed into each well of a black 96 well microtiter plate with transparent bottom (Falcon, Bredford, MA, USA). To achieve the indicated concentrations, a multi-channel pipette was used to add 5 µl of a two-fold dilution series of peptide solution in water to 8 wells simultaneously. The plate was loaded into a Perkin-Elmer Envision microtiter plate reader immediately after addition of the peptide (arasin 1(1–23), PR-39(1–26) or cecropin P1) and the measurement started 30 sec later because of handling events and 2 seconds of shaking inside the plate reader. Light production and growth (OD595) of the sensor bacteria was followed for 3 h under repeated shaking cycles before each measurement at 30°C.
# Gram-negative bacteria = conditions: cited from earlier work
# Method: The high standard deviation values only observed at 20 µM (5×MIC) for both the viability assay (Fig. 3) and the membrane integrity assay (Fig. 6) indicate that activity around this concentration was very sensitive to individual assay conditions.
# E. coli HB101 [2] = assay: Membrane integrity assay II (propidium iodide, flow cytometry); format: cell-based, Escherichia coli; conditions: at MIC; PI flow cytometry
# Method: The effect of arasin 1(1–23) and cecropin P1 on membrane permeabilization was also studied by measuring the percentage of propidium iodide (PI) positive cells by flow cytometry. Samples of 1×10^6 cells/ml of E. coli HB101 were incubated in 50% MH with peptides at 37°C for different time span. After incubation, PI (Sigma Aldrich, Saint Louis, MO, USA) was added to the peptide-treated bacteria at a final concentration of 10 µg/ml. The cells were analyzed after 4 min of incubation with PI at 37°C in the flow cytometer as described.
# C. albicans ATCC 10231 = format: cell-based, Candida albicans; conditions: ATCC 10231, 48 h
# E. coli HB101 [3] = assay: Bactericidal assay (killing kinetics, colony counts); format: cell-based, Escherichia coli; conditions: 50% MHB, 1×10^6 CFU/ml, 37°C
# Method: During incubation, aliquots were removed at different time intervals, washed in buffered high salt solution (10 mM Na-phosphate, 400 mM NaCl, 10 mM MgCl2), diluted and plated on MH plates. The number of bacterial CFU was determined after approximately 48 h of incubation at 37°C.
# C. glutamicum ATCC 13032 = format: cell-based, Corynebacterium glutamicum; conditions: ATCC 13032, 24 h
# S. cerevisiae spp. = format: cell-based, Saccharomyces cerevisiae; conditions: 48 h
# E. coli HB101 [4] = assay: Antibacterial MIC assay (Bioscreen C growth monitoring); format: cell-based, Escherichia coli; conditions: 50% MH
# Method: Escherichia coli (ATCC 25922), E. coli HB101, Pseudomonas aeruginosa (ATCC 27853), Staphylococcus aureus (ATCC 9144) and Corynebacterium glutamicum (ATCC 13032) were grown at 37°C in Mueller Hinton agar (MH; Difco Laboratories, Detroit, USA). The yeasts Candida albicans (ATCC 10231) and Saccharomyces cerevisiae spp and the mold Botrytis cinerea 101 [33] were cultivated on potato dextrose agar supplemented with 2% glucose at room temperature (RT).
# Determination of the MIC against bacteria was performed by continuous monitoring of bacterial growth using a Bioscreen C microbiology reader (Labsystems Oy, Helsinki, Finland). The synthetic peptides were tested for antibacterial and antifungal activity at final concentrations (prepared from serial two-fold dilutions) ranging from 0.2 µM to 100 µM. The test was performed in 100-well flat-bottomed honeycomb plates, in which 50 µl peptide solution was incubated with 50 µl of a suspension of an actively growing culture of bacteria diluted to a starting concentration of 2.5×10^5 CFU/ml in Mueller Hinton Broth (MHB). The growth chamber was maintained at 37°C during the incubation period. The absorbance was measured by a turbidometric method with vertical light photometry and a wide band filter (420–580 nm). MIC was defined as the lowest concentration resulting in no visible bacterial growth after 24 h.
# B. cinerea 101 = format: cell-based, Botrytis cinerea; conditions: lowest concentration tested giving less than 50% visible growth vs growth control; potato dextrose medium, 20°C, 48 h; three individual experiments
# E. coli ATCC 25922 = format: cell-based, Escherichia coli; conditions: ATCC 25922, 24 h
# S. aureus ATCC 9144 = format: cell-based, Staphylococcus aureus; conditions: ATCC 9144, 24 h
smiles,measurement,setting,value
"CC[C@H](C)[C@H](NC(=O)CNC(=O)[C@H](CCC(=O)O)NC(=O)[C@H](CO)NC(=O)[C@@H](NC(=O)[C@H](CCCNC(=N)N)NC(=O)[C@H](CCCCN)NC(=O)[C@H](CCCCN)NC(=O)[C@H](C)NC(=O)[C@H](CO)NC(=O)[C@H](CC(N)=O)NC(=O)[C@H](CCC(=O)O)NC(=O)[C@H](CC(C)C)NC(=O)[C@H](CCCCN)NC(=O)[C@H](CCCCN)NC(=O)[C@H](C)NC(=O)[C@@H](NC(=O)[C@H](CCCCN)NC(=O)[C@H](CO)NC(=O)[C@H](CC(C)C)NC(=O)[C@H](Cc1c[nH]c2ccccc12)NC(=O)[C@@H](N)CO)[C@@H](C)O)[C@@H](C)CC)C(=O)N[C@@H](C)C(=O)N[C@H](C(=O)N[C@@H](C)C(=O)N[C@H](C(=O)N[C@@H](CCC(N)=O)C(=O)NCC(=O)NCC(=O)N1CCC[C@H]1C(=O)N[C@@H](CCCNC(=N)N)C(=O)O)[C@@H](C)CC)[C@@H](C)CC [Cecropin P1, reference compound] (H-SWLSKTAKKLENSAKKRISEGIAIAIQGGPR-OH; N-terminus and C-terminus assumed)",MIC P. aeruginosa ATCC 27853,P. aeruginosa ATCC 27853,0.8 to 1.6 µM
same,reduction of light emitted,[1],60%
same,MBC against Gram-negative bacteria,Gram-negative bacteria,1 to 2 µM
same,incubation time after which damage of the membrane was induced,E. coli HB101 [2],5 min
same,IC50,C. albicans ATCC 10231,12.5 µM
same,time to kill all the bacteria,E. coli HB101 [3],approximately 15 min
same,MIC C. glutamicum ATCC 13032,C. glutamicum ATCC 13032,0.4 to 1.6 µM
same,IC50,S. cerevisiae spp.,6.3 µM
same,MIC E. coli HB101,"E. coli HB101 [4]; lowest concentration with no visible bacterial growth after 24 h, 37°C, 2.5×10^5 cells/mL, representative of three individual experiments",0.8 to 1.6 µM
same,MIC against E. coli HB101 (figure legend),E. coli HB101 [4]; value used for mode of action studies,1 µM
same,IC50 B. cinerea 101,B. cinerea 101,50 µM
same,MIC E. coli ATCC 25922,E. coli ATCC 25922,0.8 to 1.6 µM
same,MIC S. aureus ATCC 9144,S. aureus ATCC 9144,>100 µM
